This is an account of results in patent US5358947A, “Angiotensin II receptor blocking 2,3-substituted pyrazolo[1,5-a]-1,3,5-triazin-4(3H)-ones” (American Cyanamid Company, priority 1993, dated 1994).

Structures can show the parent of a compound that is named as a salt.

This assay concerns the target T1, Angiotensin II Receptor (Bos taurus, UniProt P25104).
T1 construct: The brownish tissue forming the adrenal cortex is scraped off and finely minced with scissors before homogenization; tissue local slaughter house (Maxwell-Cohen); host or cells: beef adrenal cortex, microsomal membranes (100,000×g pellet)
T1 sequence (P25104 1-359): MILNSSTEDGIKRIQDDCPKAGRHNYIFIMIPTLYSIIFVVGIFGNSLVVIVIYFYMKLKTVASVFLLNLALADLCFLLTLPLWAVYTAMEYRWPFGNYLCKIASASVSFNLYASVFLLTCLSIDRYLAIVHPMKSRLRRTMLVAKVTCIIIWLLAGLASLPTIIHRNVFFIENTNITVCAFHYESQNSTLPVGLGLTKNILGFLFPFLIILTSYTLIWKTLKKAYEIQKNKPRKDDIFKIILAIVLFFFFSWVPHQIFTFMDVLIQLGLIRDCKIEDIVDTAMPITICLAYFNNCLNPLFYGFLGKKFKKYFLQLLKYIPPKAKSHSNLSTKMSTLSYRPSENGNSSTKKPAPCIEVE
Briefly: Angiotensin II receptor binding assay ([125I](Sar1,Ile8)AngII displacement, beef adrenal cortex membranes). The conditions noted are these: 60 minutes, room temperature. The text has this:
Beef adrenals are obtained from a local slaughter house (Maxwell-Cohen). [^125 I](Sar^1,Ile^8)AngII, S.A. 2200 Ci/mmole, is purchased from Dupont (NEN®, Boston, Mass.). all unlabeled AngII analogs, Dimethylsulfoxide (DMSO), nucleotides, bovine serum albumin (BSA) are purchased from Sigma Chemical Co , St Louis, Mo. U.S.A.
Approximately sixteen (16) to twenty (20) beef adrenal glands are processed as follows: fresh adrenal glands received on crushed ice are cleaned of fatty tissues and the tough membranes encapsulating the glands are removed and discarded. The brownish tissue forming the adrenal cortex is scraped off and finely minced with scissors before homogenization. Care is taken to avoid contamination with medullary tissue during dissection. The scraped cortices are suspended in twenty volumes of an ice-cold buffer medium consisting of 10 mM Tris.HCl (pH 7.4 at 22° C.) and containing 1.0 mM EDTA and 0.2M sucrose. Unless otherwise indicated, all subsequent operations are done at 4° C. The tissue is homogenized in a glass homogenizer with a motor driven teflon pestle with a clearance of 1.0 mm. The homogenate is centrifuged first at low speed (3,000×g) for 10 minutes. The resulting pellet is discarded and the supernatant fluid recentrifuged at 10,000×g of 15 minutes to give a P2 pellet. This P2 pellet is discarded and the liquid phase is carefully decanted off in clean centrifuge tubes and recentrifuged at high speed (100,000×g) for 60 minutes. The translucent final pellet is harvested and combined in a small volume (20-50.0 ml) of 50.0 mM Tris.HCl buffer, pH 7.2. A 100 ul aliquot is withdrawn and the protein content of the preparation is determined by the Lowry's method (Lowry, O. H., Rosebrough, N. F., Farr, A. L. and Randall, R. J., Protein measurement with Folin phenol reagent. J. Biol. Chem., […], 265-275, 1951). The pelleted membrane is reconstituted in 50.0 mM Tris.HCl buffer containing 0.1 mM of phenylmethylsulfonyl fluoride (PMSF) to give approximately a protein concentration of 2.5 mg per ml of tissue suspension. The membrane preparation is finally aliquoted in 1.0 ml volumes and stored at -70° C. until use in the binding assays.
Binding of[^125 I](Sar^1,Ile^8)AngII
The binding of [^125 I](Sar^1 Ile^8)AngII to microsomal membranes is initiated by the addition of reconstituted membranes (1:10 vols.) in freshly made 50.0 mMTris.HCl buffer, pH 7.4 containing 0.25% heat inactivated bovine serum albumin (BSA): 80 ul membrane protein (10 to 20 ug/assay) to wells already containing 100 ul of incubatin buffer (as described above) and 20 ul [^125 I](Sar^1,Ile^8)AngII (Specific Activity 2200 Ci/mmole). Non-specific binding is measured in the presence of 1.0 uM unlabeled (Sar^1,Ile^8)AngII, added in 20 ul volume. Specific binding for [^125 I](Sar^1, Ile^8)AngII is greater than 90% In competition studies, experimental compounds are diluted in dimethylsulfoxide (DMSO) and added in 20 ul to wells before the introduction of tissue membranes. This concentration of DMSO is found to have no negative effects on the binding of [^125 I](Sar^1, Ile^8)AngII to the membranes. Assays are performed in triplicate. The wells are left undisturbed for 60 minutes at room temperature. Following incubation, all wells are harvested at once with a Brandel® Harvester especially designed for a 96 well plate (Brandel®Biomedical Research & Development Labs. Inc., Gaithersburg, Md., U.S.A.). The filter discs are washed with 10×1.0 ml of cold 0.9% NaCl to remove unbound ligand. […] This method is routinely used. The filters are removed from the filter grid and counted in a Parkard® Cobra Gamma Counter for 1 minute. (Packard Instrument Co., Downers Grove, Ill., U.S.A.). The binding data are analyzed by the non-linear interactive "LUNDON-1" program (LUNDON SOFTWARE Inc., Cleveland, Ohio U.S.A.). […]
`CCCCc1nc2cc(-c3ccccc3)nn2c(=O)n1Cc1ccc(-c2ccccc2-c2nnn[nH]2)cc1` [Example 10, 2-Butyl-7-phenyl-3-[[2'-(1H-tetrazol-5-yl)[1,1'-biphenyl]-4-yl]methyl]pyrazolo[1,5-a]-1,3,5-triazin-4(3H)-one]: the half-maximal inhibitory concentration (IC50) is 760 nM.

For the molecule `CCCCc1nc2cc(-c3ccco3)nn2c(=O)n1Cc1ccc(-c2ccccc2-c2nnn[nH]2)cc1` [Example 11, 2-Butyl-7-(2-furanyl)-3-[[2'-(1H-tetrazol-5-yl)[1,1'-biphenyl]-4-yl]methyl]pyrazolo[1,5-a]-1,3,5-triazin-4(3H)-one], the IC50 is 670 nM.

With `CCCCc1nc2cc(-c3ccc(F)cc3)nn2c(=O)n1Cc1ccc(-c2ccccc2-c2nnn[nH]2)cc1` [Example 12, 2-Butyl-7-(4-fluorophenyl)-3-[[2'-(1H-tetrazol-5-yl)[1,1'-biphenyl]-4-yl]methyl]pyrazolo[1,5-a]-1,3,5-triazin-4(3H)-one], the 50% inhibitory concentration (IC50) worked out at 63 nM.

Regarding `CCCCc1nc2ccnn2c(=O)n1Cc1ccc(-c2ccccc2-c2nn[nH]n2)cc1` [Example 17, 2-Butyl-3-[[2'-(1H-tetrazol-5-yl)[1,1'-biphenyl]-4-yl]methyl]pyrazolo[1,5-a]-1,3,5-triazin-4(3H) -one], the IC50 was found to be 1200 nM.

For the molecule `CCCCc1nc2c(Br)cnn2c(=O)n1Cc1ccc(-c2ccccc2-c2nn[nH]n2)cc1` [Example 20], the IC50 came out at 4000 nM.

Consider `CCCCc1nc2ccnn2c(=O)n1Cc1ccc(-c2ccccc2-c2nn[nH]n2)cc1` [Example 21, 2-Butyl-3-[[2'-(1H-tetrazol-5-yl)-[[1,1'-biphenyl]-4-yl]methyl]-pyrazolo[1,5-a]-1,3,5-triazin-4(3H)-one potassium salt], for which the IC50 was determined as 3000 nM.
